Experimental data taken from patent publication US9169241B2, “Quinolinyloxyphenylsulfonamides” (Max-Planck-Gesellschaft Zur Forderung der Wissenschaften …, priority 2009, dated 2015).
pIC50: −log10 of the molar value. Like-named read-outs stand apart in the source and are kept apart here.

Tests used:
tumor cell = assay: Matrigel outgrowth assay/branching assay (Table Va); assay type: cell-based
Protocol: The Matrigel outgrowth assay is based on the ability of tumor cell to penetrate a solid gel of extracellular matrix proteins mimicking the metastasis formation in vivo. While cells with low invasive potential appear as roundish cell or cell cluster, cells with high invasive potential penetrate the Matrigel and form polymorphic structures. In detail 65 μl of Matrigel matrix (Matrigel™ Matrix, BD Biosciences, Bedford, Mass., USA) with a concentration of 3 mg/ml have been polymerized in 96 well plates for 1 h at 37° C. Subsequently 5000 cell/well were seeded into each well containing cell culture medium and indicated compound with concentrations of 3.125 μM, 1.56 μM and 0.78 μM as well as DMSO control. After 48 h, 72 h and 96 h images of cell were taken on an inverted microscope using a 5× objective (Zeiss Axiovert S100 microscope Carl Zeiss UK, Welwyn Garden City, UK). Only compound concentrations were total branching inhibition was evident were accounted as positive. Method was used as previously described, with some modifications (Thompson E W, et al. Association of increased basement membrane invasiveness with absence of estrogen receptor and expression of vimentin in human breast cancer cell lines. J Cell Physiol 1992; 150:534-44).

Hs578T [1] = assay: Matrigel outgrowth assay/branching assay; assay type: cell-based; details: Homo sapiens, Hs-578T; HS578T cell line; Table Ib; read-out: Total branching inhibition in Matrigel HS578T
In short: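 Read-out: microscopic images of invasive branching structures at 48 h, 72 h and 96 h. Cells sat on a 3 mg/ml Matrigel layer (set 1 h, 37° C) with compound at 3.125, 1.56 and 0.78 μM or DMSO. A concentration counts as positive only with complete branching inhibition.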

indicated cell line = assay: Wound healing migration assay (Table IV); assay type: cell-based; details: compounds at 12.5, 6.25, 3.125 μM, 48 h-72 h
Protocol: This method mimics cell migration during wound healing in vivo. The basic steps involve creating a “wound” in a cell monolayer, capturing the images at the beginning and at regular intervals during cell migration to close the wound, and comparing the images to quantify the migration rate of the cells. In detail, 150000 cell/24 well have been seeded and allowed to form a monolayer overnight. Subsequently a “wound” or “scratch” has been performed with a 1000 μl pipette tip. The STDV of wound size is normally below 10% at time point t0. The assay was stopped by fixation with 0.05% Crystal violet/20% methanol when control scratches were closed. The assay was terminated between 48 h and 72 h depending on the migration potential of the indicated cell line. The “wounds” were visualized with a Zeiss Axiovert S100 microscope (Carl Zeiss UK, Welwyn Garden City, UK). The tested compounds were used at 12.5 μM, 6.25, 3.125 μM and DMSO control. IC50 values have been calculated as 50% wound size in between t0 and t48 or t72.

C8161 = assay: Apoptosis assay (Cellomics, nucleus condensation); assay type: cell-based; details: Homo sapiens, Table III, read-out: Apoptosis induction in C8161
Text: (§1) The Cellomics BioApplication (Thermo Fischer Cellomics Products, Pittsburgh, Pa.) is an automated image analysis algorithm that provides detailed analysis of phenotypes related to apoptosis. As one of the most prominent characteristics of apoptotics cell a nucleus condensation takes place. This can be measured fluorescence signal intensity using a CCD camera on fully automated microscope system. The Cellomics system is able to quantify the fluorescence intensity per single nucleus and calculates the variation of signal intensity in each cell population. […] Additionally the number of detected cell decreases normally in apoptotic cell populations. In detail 5000 cell per 96 well were labeled with DNA intercalating dye (Hoechst 33342, Sigma, Steinheim, Germany) to visualize the nucleus in a fluorescence microscope under live conditions. The apoptosis assay was performed 24 h and 48 h after addition of compound at concentrations 12.5 μM, 6.25 μM, 3.125 μM, 1.56 μM, 0.78 μM, 0.39 μM as well as DMSO control for 48 h.

U118 = assay: Apoptosis assay (Cellomics, nucleus condensation); assay type: cell-based; details: Table III, read-out: Apoptosis induction in U118
Text: as §1

SF126 = assay: Apoptosis assay (Cellomics, nucleus condensation); assay type: cell-based; details: Homo sapiens, SF-126, Table III, read-out: Apoptosis induction in SF126
Text: as §1

U138 = assay: Apoptosis assay (Cellomics, nucleus condensation); assay type: cell-based; details: Table III, read-out: Apoptosis induction in U138
Text: as §1

Hs578T [2] = assay: Apoptosis assay (Cellomics, nucleus condensation); assay type: cell-based; details: Homo sapiens, Hs-578T, Table III, read-out: Apoptosis induction in Hs578T
Text: as §1

SF763 = assay: Apoptosis assay (Cellomics, nucleus condensation); assay type: cell-based; details: Table III, read-out: Apoptosis induction in SF763
Text: as §1

cells = assay: Boyden chamber migration assay (Table VI); assay type: cell-based; details: Homo sapiens, Hs-578T, 16 h, Hs578T cells; 16 h migration
Protocol: The Boyden chamber assay is based on a chamber of two medium-filled compartments separated by a microporous membrane of 8 μM (Cell culture insert 8.0 μM pore size, BD Biosciences, Bedford, Mass.). The boyden chamber migration assays were carried out according to the supplier's instructions. In general, 20000 cells are placed in the upper compartment with medium containing 0% FCS plus 0.1% BSA and are allowed to migrate 16 h through the pores of the membrane into the lower compartment, which is filled with cell culture medium containing 10% FCS as chemotactic agents. The cells remaining in the insert were removed with a cotton swab, and the cells on the bottom of the filter were fixed and counted. (Zhang Y X, et al. AXL is a potential target for therapeutic intervention in breast cancer progression. Cancer Res. 2008; 68:1905-15).

viable cells in culture = assay: Cell viability assay at 10 μM (CellTiter-Glo, Table VII); assay type: cell-based; details: compound 10 μM, 72 h;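 note: graded A 0-20%; B 21-40%; C 41-60%; D over 60% viable cells relative to DMSO control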
In short: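 Viable cell number was measured with the CellTiter-Glo Luminescent Cell Viability Assay (Promega), following the manufacturer's protocol, which quantifies ATP as a marker of metabolically active cells. In 96-well plates, 1000 cells/well in 100 μl medium were exposed to compound at 10 μM, or to DMSO control, for 72 h. Values were calculated relative to DMSO-control ATP.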

[3] = Homo sapiens, C8161 cells, read-out: Total branching inhibition in Matrigel C8161
[4] = Homo sapiens, Hs-578T, Hs578T cells, read-out: Total branching inhibition in Matrigel Hs578T
[5] = U118 cells, read-out: Total branching inhibition in Matrigel U118
[6] = U138 cells, read-out: Total branching inhibition in Matrigel U138
[7] = Homo sapiens, C8161 cells, read-out: IC50 Wound healing Assay C8161
[8] = SF763 cells, read-out: IC50 Wound healing Assay SF763
[9] = Homo sapiens, HCT-116, HCT116 def, read-out: percentage (%) of viable cells HCT 116def
[10] = Homo sapiens, HCT-116, HCT116 wt, read-out: percentage (%) of viable cells HCT 116wt
[11] = Homo sapiens, HT-29, HT29, read-out: percentage (%) of viable cells HT29
[12] = Homo sapiens, NCI-H358, H358, read-out: percentage (%) of viable cells H358
[13] = Homo sapiens, NCI-H1650, H1650, read-out: percentage (%) of viable cells H1650
[14] = Homo sapiens, NCI-H1666, H1666, read-out: percentage (%) of viable cells H1666
[15] = Homo sapiens, NCI-H1975, H1975, read-out: percentage (%) of viable cells H1975
[16] = Homo sapiens, NCI-H1993, H1993, read-out: percentage (%) of viable cells H1993
[17] = Homo sapiens, A549, read-out: percentage (%) of viable cells A549
[18] = Homo sapiens, HCC827, read-out: percentage (%) of viable cells HCC827
[19] = Homo sapiens, SW480, read-out: percentage (%) of viable cells SW480
[20] = RKO, read-out: percentage (%) of viable cells RKO

SMILES	pIC50 (tumor cell; [3])	pIC50 (tumor cell; [4])	pIC50 (tumor cell; [5])	pIC50 (tumor cell; [6])	pIC50 (Hs578T [1])	pIC50 (indicated cell line; [7])	pIC50 (indicated cell line; [8])	pIC50 (C8161)	pIC50 (U118)	pIC50 (SF126)	pIC50 (U138)	pIC50 (Hs578T [2])	pIC50 (SF763)	melting point [°C]	pIC50 (cells)	viability at 10 µM (viable cells in culture; [9]) [%]	viability at 10 µM (viable cells in culture; [10]) [%]	viability at 10 µM (viable cells in culture; [11]) [%]	viability at 10 µM (viable cells in culture; [12]) [%]	viability at 10 µM (viable cells in culture; [13]) [%]	also measured
COc1cc2c(Oc3ccc(NS(=O)(=O)c4ccc(F)c(F)c4F)cc3F)ccnc2cc1OCCCN1CCN(C)CC1 [Example 17, 2,3,4-Trifluoro-N-(3-fluoro-4-{6-methoxy-7-[3-(4-methyl-piperazin-1-yl)-propoxy]-quinolin-4-yloxy}-phenyl)-benzenesulfonamide]	≥ 5.30	≥ 5.30	≥ 5.30	4.30 to 5.30	≥ 5.00	≥ 4.90	4.30 to 4.90	≥ 4.90	4.30 to 4.90	≥ 4.90	≥ 4.90	≥ 4.90	≥ 4.90	88 to 90	≥ 5.30	–	–	–	–	–	–
COc1cc(S(=O)(=O)Nc2ccc(Oc3ccnc4cc(OCCCN5CCN(C)CC5)c(OC)cc34)c(F)c2)ccc1F [Example 18, 4-Fluoro-N-(3-fluoro-4-{6-methoxy-7-[3-(4-methyl-piperazin-1-yl)-propoxy]-quinolin-4-yloxy}-phenyl)-3-methoxy-benzenesulfonamide]	≥ 5.30	≥ 5.30	≥ 5.30	≥ 5.30	≥ 5.00	≥ 4.90	4.30 to 4.90	≥ 4.90	≥ 4.90	≥ 4.90	≥ 4.90	≥ 4.90	≥ 4.90	167 to 169	≥ 5.30	0 to 20	0 to 20	0 to 20	0 to 20	21 to 40	viability at 10 µM (viable cells in culture; [14]): 21 to 40%; viability at 10 µM (viable cells in culture; [15]): 0 to 20%; viability at 10 µM (viable cells in culture; [16]): 0 to 20%; viability at 10 µM (viable cells in culture; [17]): 21 to 40%; viability at 10 µM (viable cells in culture; [18]): 21 to 40%; viability at 10 µM (viable cells in culture; [19]): 0 to 20%; viability at 10 µM (viable cells in culture; [20]): 0 to 20%
COc1cc2c(Oc3ccc(NS(=O)(=O)c4ccccc4F)cc3F)ccnc2cc1OCCCN1CCN(C)CC1 [Example 26, 2-Fluoro-N-(3-fluoro-4-{6-methoxy-7-[3-(4-methyl-piperazin-1-yl)-propoxy]-quinolin-4-yloxy}-phenyl)-benzenesulfonamide]	≥ 5.30	≥ 5.30	≥ 5.30	4.30 to 5.30	≥ 5.00	4.30 to 4.90	≥ 4.90	≥ 4.90	4.30 to 4.90	4.30 to 4.90	≥ 4.90	≥ 4.90	≥ 4.90	185 to 186	≥ 5.30	–	–	–	–	–	–
COc1cc2nccc(Oc3ccc(NS(=O)(=O)c4ccccc4C(F)(F)F)cc3F)c2cc1OCCCN1CCN(C)CC1 [Example 86, N-(3-Fluoro-4-{7-methoxy-6-[3-(4-methyl-piperazin-1-yl)-propoxy]-quinolin-4-yloxy}-phenyl)-2-trifluoromethyl-benzenesulfonamide]	≥ 5.30	≥ 5.30	≥ 5.30	4.30 to 5.30	≥ 5.00	4.30 to 4.90	4.30 to 4.90	≥ 4.90	≥ 4.90	≥ 4.90	≥ 4.90	≥ 4.90	≥ 4.90	–	≥ 5.30	21 to 40	21 to 40	0 to 20	0 to 20	21 to 40	viability at 10 µM (viable cells in culture; [14]): 41 to 60%; viability at 10 µM (viable cells in culture; [15]): 21 to 40%; viability at 10 µM (viable cells in culture; [16]): 0 to 20%; viability at 10 µM (viable cells in culture; [17]): > 60%; viability at 10 µM (viable cells in culture; [18]): 41 to 60%; viability at 10 µM (viable cells in culture; [19]): 21 to 40%; viability at 10 µM (viable cells in culture; [20]): 21 to 40%
